Source: US4303664A, “Novel penicillin derivatives containing a coumarin nucleus and medicines containing the same” (Teijin Limited, priority 1978, dated 1981)
In brackets after ≈: the same amount, converted by molar mass.

Key:
[1] = tested on: Staphylococcus aureus 209-p; assay: Bactericidal test (MIC), Staphylococcus aureus 209-p; assay type: cell-based; details: (1) Staphylococcus aureus 209-p
Text: (§1) Results of bactericidal tests (MIC, r/ml) on the penicillin derivatives of this invention prepared in the above examples are shown in the following table.

[2] = tested on: Staphylococcus aureus 1248; assay: Bactericidal test (MIC), Staphylococcus aureus 1248; assay type: cell-based; details: (2) Staphylococcus aureus 1248; read-out: MIC
Text: as §1

Bacillus subtilis = assay: Bactericidal test (MIC), Bacillus subtilis; assay type: cell-based; details: (3) Bacillus subtilis
Text: as §1

[3] = tested on: Salmonella typhimurium G-20; assay: Bactericidal test (MIC), Salmonella typhimurium G-20; assay type: cell-based; details: Salmonella enterica; (4) Salmonella typhimurium G-20
Text: as §1

[4] = tested on: Escherichia Coli NIHJ JC-2; assay: Bactericidal test (MIC), Escherichia Coli NIHJ JC-2; assay type: cell-based; details: NIHJJC2; (5) Escherichia Coli NIHJ JC-2
Text: as §1

[5] = tested on: Klebsiella neumoniae ATCC10031; assay: Bactericidal test (MIC), Klebsiella neumoniae ATCC10031; assay type: cell-based; details: (6) Klebsiella neumoniae ATCC10031; read-out: MIC
Text: as §1

Enterobactor cloacae 147 = assay: Bactericidal test (MIC), Enterobactor cloacae 147; assay type: cell-based; details: (7) Enterobactor cloacae 147
Text: as §1

[6] = tested on: Enterobacter cloacae IF012937; assay: Bactericidal test (MIC), Enterobacter cloacae IF012937; assay type: cell-based; details: (8) Enterobacter cloacae IF012937
Text: as §1

Morganella var. G-2 = assay: Bactericidal test (MIC), Morganella var. G-2; assay type: cell-based; details: VAR.G2; (9) Morganella var. G-2; read-out: MIC
Text: as §1

Rettgerella var. Tid-21 = assay: Bactericidal test (MIC), Rettgerella var. Tid-21; assay type: cell-based; details: (10) Rettgerella var. Tid-21; read-out: MIC
Text: as §1

Serratia G-18 = assay: Bactericidal test (MIC), Serratia G-18; assay type: cell-based; details: G18; (11) Serratia G-18; read-out: MIC
Text: as §1

[7] = tested on: Pseudomonas aeruginosa IFO-3080; assay: Bactericidal test (MIC), Pseudomonas aeruginosa IFO-3080; assay type: cell-based; details: IFO3080; (12) Pseudomonas aeruginosa IFO-3080; read-out: MIC
Text: as §1

[8] = tested on: Pseudomonas aeruginosa 0-37; assay: Bactericidal test (MIC), Pseudomonas aeruginosa 0-37; assay type: cell-based; details: 037; (13) Pseudomonas aeruginosa 0-37
Text: as §1

[9] = tested on: Pseudomonas aeruginosa Tid-53; assay: Bactericidal test (MIC), Pseudomonas aeruginosa Tid-53; assay type: cell-based; details: TID53; (14) Pseudomonas aeruginosa Tid-53
Text: as §1

[10] = tested on: Pseudomonas aeruginosa GN-315; assay: Bactericidal test (MIC), Pseudomonas aeruginosa GN-315; assay type: cell-based; details: GN315; (15) Pseudomonas aeruginosa GN-315
Text: as §1

[11] = tested on: Pseudomonas aeruginosa 130; assay: Bactericidal test (MIC), Pseudomonas aeruginosa 130; assay type: cell-based; details: (16) Pseudomonas aeruginosa 130
Text: as §1

[12] = Rates of protein fixation (human serum protein); assay type: in vitro ADME; details: read-out: Rate of protein fixation (converted)
Text: Rates of protein fixation (human serum protein) of the penicillin derivatives of this invention are illustrated as follows: […]

[13] = Acute toxicity values [(LD50), mouse]; details: in vivo
Text: Acute toxicity values [(LD50), mouse] of some penicillin derivatives of this invention are illustrated in the following table.

| SMILES | MIC [1] [µg/mL] | MIC [2] [µg/mL] | MIC (Bacillus subtilis) [µg/mL] | MIC [3] [µg/mL] | MIC [4] [µg/mL] | MIC [5] [µg/mL] | MIC (Enterobactor cloacae 147) [µg/mL] | MIC [6] [µg/mL] | MIC (Morganella var. G-2) [µg/mL] | MIC (Rettgerella var. Tid-21) [µg/mL] | MIC (Serratia G-18) [µg/mL] | MIC [7] [µg/mL] | MIC [8] [µg/mL] | MIC [9] [µg/mL] | MIC [10] [µg/mL] | MIC [11] [µg/mL] | fraction unbound [12] | LD50 ([13]; Oral) [mg/kg] | LD50 ([13]; ip, Intraabdominal) [mg/kg] |
| --- | --- | --- | --- | --- | --- | --- | --- | --- | --- | --- | --- | --- | --- | --- | --- | --- | --- | --- | --- |
| Cc1cccc2cc(C(=O)N[C@@H](C(=O)N[C@@H]3C(=O)N4[C@@H]3SC(C)(C)[C@@H]4C(=O)O)c3ccccc3)c(=O)oc12 [Example 15, D(-)-α-(8-Methylcoumarin-3-carbonamido)benzylpenicillin] | < 0.4 | 6.25 (≈ 11.7 µM) | < 0.4 | < 0.4 | < 0.4 | 6.25 (≈ 11.7 µM) | 200 (≈ 373 µM) | 100 (≈ 187 µM) | 100 (≈ 187 µM) | 50 (≈ 93.4 µM) | 200 (≈ 373 µM) | 12.5 (≈ 23.3 µM) | 200 (≈ 373 µM) | 100 (≈ 187 µM) | 200 (≈ 373 µM) | 25 (≈ 46.7 µM) |  |  |  |
| CC1(C)S[C@@H]2[C@H](NC(=O)[C@H](NC(=O)c3cc4ccccc4oc3=O)c3ccc(O)cc3)C(=O)N2[C@H]1C(=O)O [Example 16, D(-)-α-(Coumarin-3-carbonamido)-p-hydroxybenzylpenicillin] | < 0.4 | 1.56 (≈ 2.9 µM) | < 0.4 | < 0.4 | < 0.4 | 6.25 (≈ 11.6 µM) | 6.25 (≈ 11.6 µM) | 25 (≈ 46.5 µM) | 12.5 (≈ 23.3 µM) | 1.56 (≈ 2.9 µM) | 50 (≈ 93 µM) | 0.8 (≈ 1.49 µM) | 25 (≈ 46.5 µM) | 6.25 (≈ 11.6 µM) | 3.13 (≈ 5.82 µM) | 1.56 (≈ 2.9 µM) | 0.55 |  |  |
| CC(=O)Oc1ccc2oc(=O)c(C(=O)N[C@@H](C(=O)N[C@@H]3C(=O)N4[C@@H]3SC(C)(C)[C@@H]4C(=O)O)c3ccc(O)cc3)cc2c1 [Example 17, D(-)-α-(6-Acetoxycoumarin-3-carbonamido)-p-hydroxybenzylpenicillin] | < 0.4 | 3.13 (≈ 5.26 µM) | < 0.4 | < 0.4 | < 0.4 | 3.13 (≈ 5.26 µM) | 12.5 (≈ 21 µM) | 12.5 (≈ 21 µM) | 12.5 (≈ 21 µM) | 3.13 (≈ 5.26 µM) | 50 (≈ 84 µM) | 0.8 (≈ 1.34 µM) | 25 (≈ 42 µM) | 6.25 (≈ 10.5 µM) | 3.13 (≈ 5.26 µM) | 1.56 (≈ 2.62 µM) |  |  |  |
| COc1cccc2cc(C(=O)N[C@@H](C(=O)N[C@@H]3C(=O)N4[C@@H]3SC(C)(C)[C@@H]4C(=O)O)c3ccc(O)cc3)c(=O)oc12 [Example 18, D(-)-α-(8-Methoxycoumarin-3-carbonamido)-p-hydroxylbenzylpenicillin] | < 0.4 | 1.56 (≈ 2.75 µM) | < 0.4 | < 0.4 | < 0.4 | 0.8 (≈ 1.41 µM) | 3.13 (≈ 5.51 µM) | 3.13 (≈ 5.51 µM) | 3.13 (≈ 5.51 µM) | 3.13 (≈ 5.51 µM) | 6.25 (≈ 11 µM) | 0.8 (≈ 1.41 µM) | 12.5 (≈ 22 µM) | 3.13 (≈ 5.51 µM) | 3.13 (≈ 5.51 µM) | 1.56 (≈ 2.75 µM) |  | > 4000 | 2000 |
| CCOc1cccc2cc(C(=O)N[C@@H](C(=O)N[C@@H]3C(=O)N4[C@@H]3SC(C)(C)[C@@H]4C(=O)O)c3ccccc3)c(=O)oc12 [Example 19, D(-)-α-(8-Ethoxycoumarin-3-carbonamido)benzylpenicillin] | < 0.4 | 3.13 (≈ 5.53 µM) | < 0.4 | < 0.4 | < 0.4 | < 0.4 | 6.25 (≈ 11.1 µM) | 6.25 (≈ 11.1 µM) | 3.13 (≈ 5.53 µM) | 3.13 (≈ 5.53 µM) | 12.5 (≈ 22.1 µM) | 1.56 (≈ 2.76 µM) | 12.5 (≈ 22.1 µM) | 3.13 (≈ 5.53 µM) | 6.25 (≈ 11.1 µM) | 1.56 (≈ 2.76 µM) |  |  |  |
| CC(=O)Nc1ccc2oc(=O)c(C(=O)N[C@@H](C(=O)N[C@@H]3C(=O)N4[C@@H]3SC(C)(C)[C@@H]4C(=O)O)c3ccccc3)cc2c1 [Example 20, D(-)-α-(6-Acetylaminocoumarin-3-carbonamido)benzylpenicillin] | < 0.4 | 3.13 (≈ 5.41 µM) | < 0.4 | < 0.4 | < 0.4 | 1.56 (≈ 2.7 µM) | 6.25 (≈ 10.8 µM) | 6.25 (≈ 10.8 µM) | 6.25 (≈ 10.8 µM) | 6.25 (≈ 10.8 µM) | 50 (≈ 86.4 µM) | 3.13 (≈ 5.41 µM) | 50 (≈ 86.4 µM) | 6.25 (≈ 10.8 µM) | 6.25 (≈ 10.8 µM) | 1.56 (≈ 2.7 µM) |  |  |  |
